Experimental data as given in patent US8076487B2, “Pyridone derivative and herbicide” (Kumiai Chemical Industry Co., Ltd., priority 2006, dated 2011).

Assays:
Assay in all cases: Test Example 1: herbicidal effect by soil application to paddy field
Format in all cases: in vivo
[1] = test system: early watergrass (Echinochloa oryzicola Vasing); conditions: for herbicidal effect, Echinochloa oryzicola Vasing: paddy field soil application, active ingredient 1,000 g per 1 hectare, wettable powder added dropwise to water surface the day after sowing, examined on the 21st day after application
Excerpt: (§1) Test Example 1 Test on Herbicidal Effect by Soil Application to Paddy Field In a 100 cm2 plastic pot, paddy field soil was filled. After puddling and leveling, seeds of early watergrass (Echinochloa oryzicola […] (Monochoria vaginalis ([…] Japanese bulrush (Scirpus juncoides Roxb.) were sown, and water was filled to be flooded to a water depth of 3 cm. […] Then, on the 21st day after the application to the plants grew in a greenhouse, the herbicidal effect was examined in accordance with a standard shown in Table 34. [table]

[2] = test system: heartshape false pickerelweed (Monochoria vaginalis (Burm.f.) C.Presl); conditions: for herbicidal effect, Monochoria vaginalis (Burm. f.) C. Presl: paddy field soil application, active ingredient 1,000 g per 1 hectare, wettable powder added dropwise to water surface the day after sowing, examined on the 21st day after application
Excerpt: as §1

[3] = test system: Japanese bulrush (Scirpus juncoides Roxb.); conditions: for herbicidal effect, Scirpus juncoides Roxb.: paddy field soil application, active ingredient 1,000 g per 1 hectare, wettable powder added dropwise to water surface the day after sowing, examined on the 21st day after application
Excerpt: as §1

[4] = soil application to paddy field, rated by standard of Table 34

SMILES	herbicidal effect, Echinochloa oryzicola Vasing [1]	herbicidal effect, Monochoria vaginalis (Burm. f.) C. Presl [2]	herbicidal effect, Scirpus juncoides Roxb. [3]	herbicidal effect (index), Echinochloa oryzicola Vasing [1, 4]	herbicidal effect (index), Monochoria vaginalis (Burm.f.) C.Presl [2, 4]	herbicidal effect (index), Scirpus juncoides Roxb. [3, 4]
CCOC(=O)Nn1c(C(F)(F)F)ccc(C(=O)C2=C(O)CCCC2=O)c1=O [I-192]	5 (90% or more of herbicidal effect and crop phytotoxicity)	5 (90% or more of herbicidal effect and crop phytotoxicity)	5 (90% or more of herbicidal effect and crop phytotoxicity)	–	–	–
COc1ccc(-n2c(C(F)(F)F)ccc(C(=O)c3cnn(C)c3O)c2=O)c(OC)c1 [IV-76]	4 (70 to less than 90% of herbicidal effect and crop phytotoxicity)	5 (90% or more of herbicidal effect and crop phytotoxicity)	5 (90% or more of herbicidal effect and crop phytotoxicity)	–	–	–
CCCCN(CCCC)n1c(C(F)(F)F)ccc(C(=O)C2=C(O)CCCC2=O)c1=O [I-174]	5 (90% or more of herbicidal effect and crop phytotoxicity)	5 (90% or more of herbicidal effect and crop phytotoxicity)	5 (90% or more of herbicidal effect and crop phytotoxicity)	–	–	–
Cc1ccc(S(=O)(=O)Oc2c(C(=O)c3ccc(C(F)(F)F)n(C)c3=O)cnn2C)cc1 [IV-194, 4-[1,2-dihydro-1-methyl-2-oxo-6-(trifluoromethyl)pyridine-3-carbonyl]-1-methyl-5-tosyloxy-1H-pyrazole]	5 (90% or more of herbicidal effect and crop phytotoxicity)	5 (90% or more of herbicidal effect and crop phytotoxicity)	5 (90% or more of herbicidal effect and crop phytotoxicity)	–	–	–
CCCn1c(C(F)(F)F)c(C)cc(C(=O)C(C#N)=C(O)C2CC2)c1=O [V-24]	–	–	–	5 (90% or more of herbicidal effect and crop phytotoxicity)	5 (90% or more of herbicidal effect and crop phytotoxicity)	5 (90% or more of herbicidal effect and crop phytotoxicity)
CCCS(=O)(=O)Oc1c(C(=O)c2ccc(C(F)(F)F)n(-c3ccc(Cl)c(OC)c3)c2=O)cnn1C [IV-91]	4 (70 to less than 90% of herbicidal effect and crop phytotoxicity)	4 (70 to less than 90% of herbicidal effect and crop phytotoxicity)	5 (90% or more of herbicidal effect and crop phytotoxicity)	–	–	–
CCCS(=O)(=O)Oc1c(C(=O)c2ccc(C(F)(F)F)n(-c3cccc([S+](C)[O-])c3)c2=O)cnn1C (stereo not drawn) [IV-73]	4 (70 to less than 90% of herbicidal effect and crop phytotoxicity)	3 (50 to less than 70% of herbicidal effect and crop phytotoxicity)	4 (70 to less than 90% of herbicidal effect and crop phytotoxicity)	–	–	–
Cn1ncc(C(=O)c2ccc(C(F)(F)F)n(CC3CCCO3)c2=O)c1OCc1ccc(C(F)(F)F)cc1 (stereo not drawn) [IV-137]	4 (70 to less than 90% of herbicidal effect and crop phytotoxicity)	4 (70 to less than 90% of herbicidal effect and crop phytotoxicity)	3 (50 to less than 70% of herbicidal effect and crop phytotoxicity)	–	–	–
COc1cccc(-n2c(C(F)(F)F)ccc(C(=O)C3=C(O)CCCC3=O)c2=O)c1 [I-77]	5 (90% or more of herbicidal effect and crop phytotoxicity)	5 (90% or more of herbicidal effect and crop phytotoxicity)	5 (90% or more of herbicidal effect and crop phytotoxicity)	–	–	–
COC1=C(C(=O)c2ccc(C(F)(F)F)n(C)c2=O)C(=O)CCC1C (stereo not drawn) [II-35]	5 (90% or more of herbicidal effect and crop phytotoxicity)	5 (90% or more of herbicidal effect and crop phytotoxicity)	5 (90% or more of herbicidal effect and crop phytotoxicity)	–	–	–
Cn1c(C(F)(F)F)ccc(C(=O)C2=C(O)C(C)(C)CCC2=O)c1=O [II-2]	5 (90% or more of herbicidal effect and crop phytotoxicity)	5 (90% or more of herbicidal effect and crop phytotoxicity)	5 (90% or more of herbicidal effect and crop phytotoxicity)	–	–	–
Cn1c(C(F)(F)F)ccc(C(=O)C2=C(Sc3c(Cl)cccc3Cl)CCCC2=O)c1=O [II-15]	5 (90% or more of herbicidal effect and crop phytotoxicity)	5 (90% or more of herbicidal effect and crop phytotoxicity)	5 (90% or more of herbicidal effect and crop phytotoxicity)	–	–	–
COc1ccccc1Cn1c(C(F)(F)F)ccc(C(=O)C2=C(O)CCCC2=O)c1=O [I-120]	5 (90% or more of herbicidal effect and crop phytotoxicity)	5 (90% or more of herbicidal effect and crop phytotoxicity)	5 (90% or more of herbicidal effect and crop phytotoxicity)	–	–	–
CCn1ncc(C(=O)c2ccc(C(F)(F)F)n(CC3CCCO3)c2=O)c1OC(=O)c1c(Cl)cc(Cl)cc1Cl (stereo not drawn) [IV-206]	5 (90% or more of herbicidal effect and crop phytotoxicity)	5 (90% or more of herbicidal effect and crop phytotoxicity)	5 (90% or more of herbicidal effect and crop phytotoxicity)	–	–	–
CC1CCC(=O)C(C(=O)c2ccc(C(F)(F)F)n(C)c2=O)=C1O (stereo not drawn) [II-1]	5 (90% or more of herbicidal effect and crop phytotoxicity)	5 (90% or more of herbicidal effect and crop phytotoxicity)	5 (90% or more of herbicidal effect and crop phytotoxicity)	–	–	–
CCCCCCNn1c(C(F)(F)F)ccc(C(=O)C2=C(O)CCCC2=O)c1=O [I-166]	5 (90% or more of herbicidal effect and crop phytotoxicity)	5 (90% or more of herbicidal effect and crop phytotoxicity)	5 (90% or more of herbicidal effect and crop phytotoxicity)	–	–	–
Cn1ncc(C(=O)c2ccc(C(F)(F)F)n(CC3CCCO3)c2=O)c1OC(=O)c1c(F)cc(F)cc1F (stereo not drawn) [IV-134]	5 (90% or more of herbicidal effect and crop phytotoxicity)	5 (90% or more of herbicidal effect and crop phytotoxicity)	5 (90% or more of herbicidal effect and crop phytotoxicity)	–	–	–
Cc1cccc(COc2c(C(=O)c3ccc(C(F)(F)F)n(CC4CCCO4)c3=O)cnn2C)n1 (stereo not drawn) [IV-138]	5 (90% or more of herbicidal effect and crop phytotoxicity)	5 (90% or more of herbicidal effect and crop phytotoxicity)	5 (90% or more of herbicidal effect and crop phytotoxicity)	–	–	–
CSCCCn1c(C(F)(F)F)ccc(C(=O)c2cnn(C)c2O)c1=O [IV-56]	5 (90% or more of herbicidal effect and crop phytotoxicity)	5 (90% or more of herbicidal effect and crop phytotoxicity)	5 (90% or more of herbicidal effect and crop phytotoxicity)	–	–	–
Cc1ccc(C(=O)C2=C(O)CCCC2=O)c(=O)n1-c1ccc(C(F)(F)F)cc1 [I-236]	5 (90% or more of herbicidal effect and crop phytotoxicity)	5 (90% or more of herbicidal effect and crop phytotoxicity)	5 (90% or more of herbicidal effect and crop phytotoxicity)	–	–	–
Cn1c(C(F)(F)F)ccc(C(=O)C2=C(Sc3c(Cl)c(Cl)c(Cl)c(Cl)c3Cl)CCCC2=O)c1=O [II-16]	5 (90% or more of herbicidal effect and crop phytotoxicity)	5 (90% or more of herbicidal effect and crop phytotoxicity)	5 (90% or more of herbicidal effect and crop phytotoxicity)	–	–	–
O=C1CCCC(O)=C1C(=O)c1ccc(C(F)(F)F)n(-c2ccc(NS(=O)(=O)C(F)(F)F)cc2)c1=O [I-97]	4 (70 to less than 90% of herbicidal effect and crop phytotoxicity)	5 (90% or more of herbicidal effect and crop phytotoxicity)	4 (70 to less than 90% of herbicidal effect and crop phytotoxicity)	–	–	–
